# Experimental data published in US11466044B2 (WAYNE STATE UNIVERSITY, priority 2017, dated 2022).
# What was measured:
# [1] = test system: wild type bacterial ribosomes; experiment: in-vitro translation assay, bacterial ribosomes; assay type: biochemical; details: Mycobacterium smegmatis ribosomes; read-out: IC50 Bacterial
# From the text: (§1) The antiribosomal activity of these compounds was investigated with cell-free translation assays using both wild type bacterial ribosomes and hybrid ribosomes carrying eukaryotic decoding A sites enabling the prediction of selectivity.
# MRSA = experiment: MIC by broth microdilution, MRSA isolates; assay type: cell-based; details: clinical isolate AG038
# [2] = test system: cytosolic ribosome (human chimeric); assay type: biochemical; details: ribosomes with a human cytosolic decoding site; read-out: IC50 Cytosolic
# From the text: as §1
# [3] = test system: mitochondrial ribosome (human chimeric); assay type: biochemical; details: ribosomes with a human mitochondrial decoding site; read-out: IC50 Mitoch.
# From the text: as §1
# [4] = test system: E coli carrying specific resistance determinants; experiment: MIC by broth microdilution, E coli carrying specific resistance determinants; assay type: cell-based
# E coli wild type = experiment: MIC by broth microdilution, wild type E coli; assay type: cell-based; details: for MIC AG001 E. coli WT: clinical isolate AG001, WT
# [5] = test system: A1555G mutant mitochondrial ribosome (human chimeric); experiment: in-vitro translation assay, human chimeric ribosomes, A1555G mutant mitochondrial decoding site; assay type: biochemical; details: human mitochondrial decoding site with A1555G point mutation; read-out: IC50 Mitoch. A1555G
# From the text: as §1
# P aeruginosa = experiment: MIC by broth microdilution, P aeruginosa isolates; assay type: cell-based, Pseudomonas aeruginosa; details: clinical isolate AG031, APH(3′)-II
SMILES,IC50 [1] [µM],MIC AG038 MRSA (MRSA) [µg/mL],IC50 [2] [µM],IC50 [3] [µM],"MIC AG036 ANT(4′,4′′) ([4]; E. coli strain AG036, ANT(4′,4′′)) [µg/mL]","MIC AG037 APH(3′)-III ([4]; E. coli strain AG037, APH(3′)-III) [µg/mL]","MIC pH421 APH(3)-I ([4]; E. coli strain pH421, APH(3)-I) [μg/ml]","MIC pH422 APH(3′)-II ([4]; E. coli strain pH422, APH(3′)-II) [μg/ml]","MIC pH423 APH(3′)-VI ([4]; E. coli strain pH423, APH(3′)-VI) [μg/ml]","MIC pH430 WT (E coli wild type; E. coli strain pH430, WT)",MIC AG001 E. coli WT (E coli wild type) [µg/mL],IC50 [5] [µM],MIC AG031 P. aer. APH(3′)-II (P aeruginosa) [µg/mL]
NCC1OC(OC2C(CO)OC(OC3C(O)C(N)CC(N)C3OC3OC4C(O)CCOC4C(O)C3N)C2O)C(N)C(O)C1O (stereo not shown) [DC210],0.04,4,50,329,2,>128,>128,32,4,2-4 μg/ml,4,44,64
NCC1OC(OC2C(CO)OC(OC3C(O)C(N)CC(N)C3OC3OC4C(O)COC4C(O)C3N)C2O)C(N)C(O)C1O (stereo not shown) [DC204],0.2,8,276,131,–,–,–,–,–,–,16,117,–
